Data published in the NIST ThermoML archive (doi:10.1021/je9008624).
Numbers after ± are expanded uncertainties.

Experiments:
[1] = refractive index (Na D-line) (dimensionless); details: 298.15 K; 101.33 kPa; Liquid
[2] = 298.15 K; 101 kPa; Liquid
[3] = xn = mol fraction of the nth substance listed; details: 298.15 K, 101 kPa, Liquid
[4] = refractive index (Na D-line) (dimensionless); xn = mol fraction of the nth substance listed; details: 298.15 K, 101 kPa, Liquid

CCCCn1cc[n+](C)c1.F[B-](F)(F)F [1-butyl-3-methylimidazolium tetrafluoroborate]
refractive index [1]: 1.41831 ± 0.00066
mass density [2]: 1192.78 ± 0.71 kg/m3

CCCCn1cc[n+](C)c1.F[B-](F)(F)F [1-butyl-3-methylimidazolium tetrafluoroborate] + CO
mass density ([3]; x2 = 0): 1192.78 ± 0.71 kg/m3
mass density ([3]; x2 = 0.0517): 1188.58 ± 0.68 kg/m3
mass density ([3]; x2 = 0.104): 1183.87 ± 0.66 kg/m3
mass density ([3]; x2 = 0.1995): 1174.09 ± 0.62 kg/m3
mass density ([3]; x2 = 0.2975): 1162.14 ± 0.57 kg/m3
mass density ([3]; x2 = 0.3993): 1146.82 ± 0.52 kg/m3
mass density ([3]; x2 = 0.5002): 1127.34 ± 0.48 kg/m3
mass density ([3]; x2 = 0.599): 1102.37 ± 0.42 kg/m3
mass density ([3]; x2 = 0.6994): 1067.86 ± 0.35 kg/m3
mass density ([3]; x2 = 0.7997): 1016.59 ± 0.26 kg/m3
mass density ([3]; x2 = 0.9): 934.6 ± 0.29 kg/m3
mass density ([3]; x2 = 0.9501): 872.82 ± 0.37 kg/m3
refractive index ([4]; x2 = 0): 1.41831 ± 0.00066
refractive index ([4]; x2 = 0.0517): 1.41844 ± 0.00066
refractive index ([4]; x2 = 0.104): 1.41726 ± 0.00066
refractive index ([4]; x2 = 0.1995): 1.41454 ± 0.00066
refractive index ([4]; x2 = 0.2975): 1.41296 ± 0.00065
refractive index ([4]; x2 = 0.3993): 1.41485 ± 0.00065
refractive index ([4]; x2 = 0.5002): 1.41652 ± 0.00065
refractive index ([4]; x2 = 0.599): 1.41435 ± 0.00065
refractive index ([4]; x2 = 0.6994): 1.40537 ± 0.00065
refractive index ([4]; x2 = 0.7997): 1.39145 ± 0.00064
refractive index ([4]; x2 = 0.9): 1.37496 ± 0.00064
refractive index ([4]; x2 = 0.9501): 1.36221 ± 0.00064

CCCCn1cc[n+](C)c1.F[B-](F)(F)F [1-butyl-3-methylimidazolium tetrafluoroborate] + COC(=O)OC
mass density ([3]; x2 = 0): 1192.78 ± 0.71 kg/m3
mass density ([3]; x2 = 0.051): 1191.17 ± 0.69 kg/m3
mass density ([3]; x2 = 0.1014): 1189.24 ± 0.67 kg/m3
mass density ([3]; x2 = 0.1987): 1184.98 ± 0.64 kg/m3
mass density ([3]; x2 = 0.2999): 1179.76 ± 0.6 kg/m3
mass density ([3]; x2 = 0.4012): 1173.39 ± 0.57 kg/m3
mass density ([3]; x2 = 0.5): 1165.72 ± 0.54 kg/m3
mass density ([3]; x2 = 0.6005): 1155.89 ± 0.5 kg/m3
mass density ([3]; x2 = 0.7007): 1143.06 ± 0.46 kg/m3
mass density ([3]; x2 = 0.8003): 1125.52 ± 0.41 kg/m3
mass density ([3]; x2 = 0.9): 1100.22 ± 0.35 kg/m3
refractive index ([4]; x2 = 0): 1.41831 ± 0.00066
refractive index ([4]; x2 = 0.051): 1.4176 ± 0.00066
refractive index ([4]; x2 = 0.1014): 1.41675 ± 0.00066
refractive index ([4]; x2 = 0.1987): 1.41501 ± 0.00066
refractive index ([4]; x2 = 0.2999): 1.41282 ± 0.00065
refractive index ([4]; x2 = 0.4012): 1.41049 ± 0.00065
refractive index ([4]; x2 = 0.5): 1.40796 ± 0.00065
refractive index ([4]; x2 = 0.6005): 1.40459 ± 0.00065
refractive index ([4]; x2 = 0.7007): 1.39931 ± 0.00064
refractive index ([4]; x2 = 0.8003): 1.39196 ± 0.00064
refractive index ([4]; x2 = 0.9): 1.38162 ± 0.00064

CCOS(=O)(=O)[O-].CCn1cc[n+](C)c1 [1-ethyl-3-methylimidazolium ethyl sulfate]
refractive index [1]: 1.47908 ± 0.00066
mass density [2]: 1236.33 ± 0.8 kg/m3

CCOS(=O)(=O)[O-].CCn1cc[n+](C)c1 [1-ethyl-3-methylimidazolium ethyl sulfate] + CO
mass density ([3]; x2 = 0): 1236.33 ± 0.8 kg/m3
mass density ([3]; x2 = 0.0487): 1232.01 ± 0.77 kg/m3
mass density ([3]; x2 = 0.0977): 1227.32 ± 0.75 kg/m3
mass density ([3]; x2 = 0.1978): 1216.77 ± 0.7 kg/m3
mass density ([3]; x2 = 0.2989): 1203.48 ± 0.65 kg/m3
mass density ([3]; x2 = 0.3991): 1186.7 ± 0.6 kg/m3
mass density ([3]; x2 = 0.4991): 1165.38 ± 0.55 kg/m3
mass density ([3]; x2 = 0.5993): 1137.34 ± 0.48 kg/m3
mass density ([3]; x2 = 0.7002): 1098.94 ± 0.4 kg/m3
mass density ([3]; x2 = 0.7999): 1043.62 ± 0.31 kg/m3
mass density ([3]; x2 = 0.9002): 953.54 ± 0.27 kg/m3
mass density ([3]; x2 = 0.9502): 884.35 ± 0.36 kg/m3
refractive index ([4]; x2 = 0): 1.47908 ± 0.00066
refractive index ([4]; x2 = 0.0487): 1.47873 ± 0.00066
refractive index ([4]; x2 = 0.0977): 1.47637 ± 0.00066
refractive index ([4]; x2 = 0.1978): 1.47035 ± 0.00066
refractive index ([4]; x2 = 0.2989): 1.46618 ± 0.00065
refractive index ([4]; x2 = 0.3991): 1.46462 ± 0.00065
refractive index ([4]; x2 = 0.4991): 1.46284 ± 0.00065
refractive index ([4]; x2 = 0.5993): 1.45585 ± 0.00065
refractive index ([4]; x2 = 0.7002): 1.43992 ± 0.00065
refractive index ([4]; x2 = 0.7999): 1.41722 ± 0.00064
refractive index ([4]; x2 = 0.9002): 1.39225 ± 0.00064
refractive index ([4]; x2 = 0.9502): 1.37316 ± 0.00064

CCOS(=O)(=O)[O-].CCn1cc[n+](C)c1 [1-ethyl-3-methylimidazolium ethyl sulfate] + COC(=O)OC
mass density ([3]; x2 = 0): 1236.33 ± 0.8 kg/m3
mass density ([3]; x2 = 0.0502): 1233.17 ± 0.77 kg/m3
mass density ([3]; x2 = 0.0999): 1229.81 ± 0.75 kg/m3
mass density ([3]; x2 = 0.1987): 1223.27 ± 0.71 kg/m3
mass density ([3]; x2 = 0.2999): 1215.47 ± 0.67 kg/m3
mass density ([3]; x2 = 0.3994): 1206.15 ± 0.63 kg/m3
mass density ([3]; x2 = 0.5006): 1194.57 ± 0.59 kg/m3
mass density ([3]; x2 = 0.5999): 1180.67 ± 0.55 kg/m3
mass density ([3]; x2 = 0.7001): 1163.11 ± 0.5 kg/m3
refractive index ([4]; x2 = 0): 1.47908 ± 0.00066
refractive index ([4]; x2 = 0.0502): 1.47687 ± 0.00066
refractive index ([4]; x2 = 0.0999): 1.47443 ± 0.00066
refractive index ([4]; x2 = 0.1987): 1.46971 ± 0.00066
refractive index ([4]; x2 = 0.2999): 1.46385 ± 0.00065
refractive index ([4]; x2 = 0.3994): 1.45729 ± 0.00065
refractive index ([4]; x2 = 0.5006): 1.44906 ± 0.00065
refractive index ([4]; x2 = 0.5999): 1.43953 ± 0.00065
refractive index ([4]; x2 = 0.7001): 1.42848 ± 0.00065

COC(=O)OC [dimethyl carbonate]
refractive index [1]: 1.36647 ± 0.00064
mass density [2]: 1063.28 ± 0.28 kg/m3

COC(=O)OC [dimethyl carbonate] + CCCCn1cc[n+](C)c1.F[B-](F)(F)F
mass density ([3]; x1 = 1): 1063.28 ± 0.28 kg/m3
refractive index ([4]; x1 = 1): 1.36647 ± 0.00064

COC(=O)OC [dimethyl carbonate] + CCOS(=O)(=O)[O-].CCn1cc[n+](C)c1
mass density ([3]; x1 = 1): 1063.28 ± 0.28 kg/m3
refractive index ([4]; x1 = 1): 1.36647 ± 0.00064

COC(=O)OC [dimethyl carbonate] + CO
mass density ([3]; x1 = 0.0501): 814.35 ± 0.45 kg/m3
mass density ([3]; x1 = 0.0997): 838.96 ± 0.41 kg/m3
mass density ([3]; x1 = 0.2008): 882.51 ± 0.36 kg/m3
mass density ([3]; x1 = 0.3003): 918.19 ± 0.31 kg/m3
mass density ([3]; x1 = 0.4002): 948.52 ± 0.27 kg/m3
mass density ([3]; x1 = 0.5005): 974.63 ± 0.24 kg/m3
mass density ([3]; x1 = 0.6004): 997.16 ± 0.2 kg/m3
mass density ([3]; x1 = 0.7015): 1017.04 ± 0.21 kg/m3
mass density ([3]; x1 = 0.8012): 1034.29 ± 0.23 kg/m3
mass density ([3]; x1 = 0.8999): 1049.44 ± 0.26 kg/m3
mass density ([3]; x1 = 0.9483): 1056.31 ± 0.27 kg/m3
mass density ([3]; x1 = 1): 1063.28 ± 0.28 kg/m3
refractive index ([4]; x1 = 0.0501): 1.33071 ± 0.00064
refractive index ([4]; x1 = 0.0997): 1.33427 ± 0.00064
refractive index ([4]; x1 = 0.2008): 1.34139 ± 0.00064
refractive index ([4]; x1 = 0.3003): 1.347 ± 0.00064
refractive index ([4]; x1 = 0.4002): 1.35162 ± 0.00064
refractive index ([4]; x1 = 0.5005): 1.35583 ± 0.00064
refractive index ([4]; x1 = 0.6004): 1.35891 ± 0.00064
refractive index ([4]; x1 = 0.7015): 1.36093 ± 0.00064
refractive index ([4]; x1 = 0.8012): 1.36336 ± 0.00064
refractive index ([4]; x1 = 0.8999): 1.36501 ± 0.00064
refractive index ([4]; x1 = 0.9483): 1.36566 ± 0.00064
refractive index ([4]; x1 = 1): 1.36647 ± 0.00064

CO [methanol]
refractive index [1]: 1.32668 ± 0.00064
mass density [2]: 786.72 ± 0.49 kg/m3

CO [methanol] + CCCCn1cc[n+](C)c1.F[B-](F)(F)F
mass density ([3]; x1 = 1): 786.72 ± 0.49 kg/m3
refractive index ([4]; x1 = 1): 1.32668 ± 0.00064

CO [methanol] + CCOS(=O)(=O)[O-].CCn1cc[n+](C)c1
mass density ([3]; x1 = 1): 786.72 ± 0.49 kg/m3
refractive index ([4]; x1 = 1): 1.32668 ± 0.00064

CO [methanol] + COC(=O)OC
mass density ([3]; x2 = 0): 786.72 ± 0.49 kg/m3
refractive index ([4]; x2 = 0): 1.32668 ± 0.00064
